Test results: patent publication US9409864B2, “Sulfonamide TRPA1 receptor antagonists” (ARIO PHARMA LIMITED, priority 2013, dated 2016)

Target: T1, native human TRPA1 receptors (Homo sapiens, UniProt O75762)
T1 construct: stably expressing native human TRPA1 receptors were used; endogenous in cells; host or cells: A549 human lung adenocarcinoma epithelial cell line
Assay: PF-4840154 (1 μM)-induced Ca2+ fluorescence measurements in A549 cell line
Assay type: cell-based
Details: for inhibition at 10 µM: 10 μM compound against 1 μM PF-4840154, A549 cells
Experimental: PF-4840154 (1 μM)-Induced Ca^2+ Fluorescence Measurements in A549 Cell Line
Human lung adenocarcinoma epithelial cell line (A549) stably expressing native human TRPA1 receptors were used. The cells were cultured in medium consisting of Eagle's minimal essential medium (EMEM) supplemented with 10% fetal bovine serum (FBS), penicillin (100 IU/ml), streptomycin ([…]), L-glutamine (2 mM), sodium bicarbonate (2.5 g/L) and HEPES (24 mM). Cells were kept at 37° C. in 5% CO2/humidified air. For the experiments the cells were seeded at a density of 16,000 cells/well into 96-well black, clear-bottom plates. After 24 hours incubation the cells were loaded with medium supplemented with 2.5 mM probenecid, 3 μM of the calcium sensitive fluorescent dye Fluo-4 AM and 0.01% pluronic acid, for 30 min at 37° C. Afterwards the loading solution was aspirated and 100 μl/well of assay buffer: Hank's Balanced Salt Solution (HBSS) supplemented with 2.5 mM probenecid and 500 μM Brilliant Black (Aldrich) was added. Stock solutions (100 mM) of ligands were made in Dimethyl Sulfoxide (DMSO) and stored at −20° C. Serial dilutions of ligands for experimental use were made in HBSS buffer. After placing both plates (cell culture and compound plate) into the FlexStation II (Molecular Device, Union City, Calif. 94587, US), fluorescence changes were measured. On-line additions were carried out in a volume of […]. To facilitate drug diffusion into the wells in antagonist type experiments, the studies were performed at 36.5° C. and three cycles of mixing (25 μl from each well moved up and down 3 times) were performed immediately after antagonist injection to the wells. All exemplified compounds were tested alone (to address residual agonistic activity) and against 1 μM of PF-4840154 to address inhibitory activity at the initial concentration of 10 μM. For selected examples the entire inhibitory concentration-response curves were constructed and the IC50 value calculated.
PF-4840154 (1 μM) increased [Ca^2+] in the vast majority (95%) of cultured cells which were thereby identified as TRPA1 expressing cells.

[1] = against PF-4840154 (1 μM)-evoked [Ca2+]i mobilization, A549 cells

T1 sequence (O75762 whole entry): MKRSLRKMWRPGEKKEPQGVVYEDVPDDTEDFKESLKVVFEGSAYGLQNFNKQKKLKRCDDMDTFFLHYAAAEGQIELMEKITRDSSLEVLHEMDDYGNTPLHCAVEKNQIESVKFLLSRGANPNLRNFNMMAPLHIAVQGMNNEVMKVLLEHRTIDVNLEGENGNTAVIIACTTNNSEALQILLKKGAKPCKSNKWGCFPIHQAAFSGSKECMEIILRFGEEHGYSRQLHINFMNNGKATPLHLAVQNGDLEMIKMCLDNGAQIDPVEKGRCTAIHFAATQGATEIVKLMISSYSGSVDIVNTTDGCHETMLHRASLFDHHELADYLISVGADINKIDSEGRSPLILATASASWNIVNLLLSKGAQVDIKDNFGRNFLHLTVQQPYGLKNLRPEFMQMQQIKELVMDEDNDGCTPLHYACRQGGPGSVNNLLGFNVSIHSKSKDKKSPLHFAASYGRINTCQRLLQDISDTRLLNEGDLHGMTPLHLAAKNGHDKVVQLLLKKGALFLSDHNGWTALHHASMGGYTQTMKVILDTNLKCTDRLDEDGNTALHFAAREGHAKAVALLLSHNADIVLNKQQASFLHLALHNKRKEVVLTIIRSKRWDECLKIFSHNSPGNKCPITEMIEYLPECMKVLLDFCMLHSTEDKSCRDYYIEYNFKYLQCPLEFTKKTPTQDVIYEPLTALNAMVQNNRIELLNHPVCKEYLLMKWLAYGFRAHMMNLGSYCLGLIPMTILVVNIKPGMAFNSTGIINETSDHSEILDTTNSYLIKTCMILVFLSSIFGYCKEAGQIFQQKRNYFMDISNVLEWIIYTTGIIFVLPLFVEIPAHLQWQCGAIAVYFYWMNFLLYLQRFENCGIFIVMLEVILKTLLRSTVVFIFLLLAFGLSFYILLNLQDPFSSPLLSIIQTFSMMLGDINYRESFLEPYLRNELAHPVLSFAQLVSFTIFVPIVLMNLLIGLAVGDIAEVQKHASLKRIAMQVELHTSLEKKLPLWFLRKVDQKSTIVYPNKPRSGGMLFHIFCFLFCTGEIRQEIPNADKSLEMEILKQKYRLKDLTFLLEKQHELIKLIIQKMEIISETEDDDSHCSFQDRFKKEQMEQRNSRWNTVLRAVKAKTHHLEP

| Compound | inhibition at 10 µM [%] | IC50 [1] [µM] | cultured cells with increased [Ca2+] (PF-4840154 1 μM, A549 cells) [%] | IC50 (against PF-4840154 (1 μM), A549 cells, cells printed in μM) [µM] |
| --- | --- | --- | --- | --- |
| CCN(C1(C(=O)NCc2cccc(-c3ccc(C(F)(F)F)cc3)c2)CC1)S(=O)(=O)c1ccc(F)cc1 [Example 29, 1-[ethyl-(4-fluorophenyl)sulfonyl-amino]-N-[[3-[4-(trifluoromethyl)phenyl]phenyl]methyl]cyclopropanecarboxamide] | 100 | 0.138 |  |  |
| CCN(C1(C(=O)NCc2cc(-c3ccc(C(F)(F)F)cc3)nc(N3CCN(CC4CC4)CC3)c2)CC1)S(=O)(=O)c1ccc(Cl)s1 [Example 65, 1-[(5-chloro-2-thienyl)sulfonyl-ethyl-amino]-N-[[2-[4-(cyclopropylmethyl)piperazin-1-yl]-6-[4-(trifluoromethyl)phenyl]-4-pyridyl]methyl]cyclopropanecarboxamide] | 100 | 0.327 |  |  |
| CCN(C1(C(=O)NCc2ccnc(-c3ccc(C(F)(F)F)cc3)c2)CC1)S(=O)(=O)c1ccc(Cl)s1 [Example 46, 1-[(5-chloro-2-thienyl)sulfonyl-ethyl-amino]-N-[[2-[4-(trifluoromethyl)phenyl]-4-pyridyl]methyl]cyclopropanecarboxamide] | 97 | 0.063 |  |  |
| CN(C1(C(=O)NCc2cccc(-c3ccc(C(F)(F)F)cc3)c2)CC1)S(=O)(=O)c1ccc(F)cc1 [Example 58, 1-[(4-fluorophenyl)sulfonyl-methyl-amino]-N-[[3-[4-(trifluoromethyl)phenyl]phenyl]methyl]cyclopropanecarboxamide] | 100 | 0.16 |  |  |
| C=C(C(=O)NCc1cc(-c2ccc(C(F)(F)F)cc2)nc(N(C)C)c1)N(CC)S(=O)(=O)c1cccs1 [Example 41, N-[[2-dimethylamino-6-[4-(trifluoromethyl)phenyl]-4-pyridyl]methyl]-2-(ethyl(2-thienylsulfonyl)amino)prop-2-enamide] | 96 | 0.135 |  |  |
| CCN(C1(C(=O)NCc2cc(-c3ccc(C(F)(F)F)cc3)nc(N(C)C)c2)CC1)S(=O)(=O)c1ccc(F)cc1 [Example 45, N-[[2-dimethylamino-6-[4-(trifluoromethyl)phenyl]-4-pyridyl]methyl]-1-[ethyl-(4-fluorophenyl)sulfonyl-amino]cyclopropanecarboxamide] | 100 | 0.151 |  |  |
| C=C(C(=O)NCc1cc(-c2ccc(OC(F)(F)F)cc2)nc(-c2ccc(OC(F)(F)F)cc2)c1)N(C)S(=O)(=O)c1ccc(Cl)cc1 [Example 20, N-[[2,6-bis[4-(trifluoromethoxy)phenyl]-4-pyridyl]methyl]-2-[(4-chlorophenyl)sulfonyl-methyl-amino]prop-2-enamide] | 96 | 0.251 |  |  |
| CCN(C1(C(=O)NCc2ccnc(-c3ccc(C(F)(F)F)cc3)c2)CC1)S(=O)(=O)c1ccc(F)cc1 [Example 25, 1-[ethyl-(4-fluorophenyl)sulfonyl-amino]-N-[[2-[4-(trifluoromethyl)phenyl]-4-pyridyl]methyl]cyclopropanecarboxamide] | 100 | 0.076 |  |  |
| CCN(C1(C(=O)NCc2cccc(-c3ccc(OC(F)(F)F)cc3)c2)CC1)S(=O)(=O)c1ccc(Cl)s1 [Example 47, 1-[(5-chloro-2-thienyl)sulfonyl-ethyl-amino]-N-[[3-[4-(trifluoromethoxy)phenyl]phenyl]methyl]cyclopropanecarboxamide] | 96 | 0.113 |  |  |
| C/C=C(/C(=O)NCc1ccnc(-c2ccc(OC(F)(F)F)cc2)c1)N(CC)S(=O)(=O)c1ccc(F)cc1 [Example 22, (Z)-2-[ethyl-(4-fluorophenyl)sulfonyl-amino]-N-[[2-[4-(trifluoromethoxy)phenyl]-4-pyridyl]methyl]but-2-enamide] | 97 | 0.246 |  |  |
| C=C(C(=O)NCc1ccnc(-c2ccc(OC(F)(F)F)cc2)c1)N(CC)S(=O)(=O)c1ccc(F)cc1 [Example 3, 2-[(4-fluorophenyl)sulfonyl-ethyl-amino]-N-[[2-[4-(trifluoromethoxy)phenyl]-4-pyridyl]methyl]prop-2-enamide] | 95 | 0.093 |  |  |
| C=C(C(=O)NCc1cccc(-c2ccc(C(F)(F)F)cc2)c1)N(CC)S(=O)(=O)c1ccc(F)cc1 [Example 8, 2-[ethyl-(4-fluorophenyl)sulfonyl-amino]-N-[[3-[4-(trifluoromethyl)phenyl]phenyl]methyl]prop-2-enamide] | 100 | 0.076 |  |  |
| CCN(C1(C(=O)NCc2cc(-c3ccc(C(F)(F)F)cc3)nc(N3CCN(CC4CC4)CC3)c2)CC1)S(=O)(=O)c1ccc(F)cc1 [Example 64, N-[[2-[4-(cyclopropylmethyl)piperazin-1-yl]-6-[4-(trifluoromethyl)phenyl]-4-pyridyl]methyl]-1-[ethyl-(4-fluorophenyl)sulfonyl-amino]cyclopropanecarboxamide] | 99 | 0.338 |  |  |
| C=C(C(=O)NCc1cc(-c2ccc(OC(F)(F)F)cc2)nc(N2CCOCC2)c1)N(C)S(=O)(=O)c1ccc(Cl)cc1 [Example 16, 2-[(4-chlorophenyl)sulfonyl-methyl-amino]-N-[[2-morpholino-6-[4-(trifluoromethoxy)phenyl]-4-pyridyl]methyl]prop-2-enamide] | 99 | 0.457 |  |  |
| CC(C)CNc1nc(N2CCN(CC3CCCOC3)CC2)ncc1C(=O)NCc1ccccc1 (centres unmarked) [PF-4840154, reference compound] |  |  | 95 |  |
| C=C(C(=O)NCc1cc(OC(C)C)nc(-c2ccc(C(F)(F)F)cc2)c1)N(CC)S(=O)(=O)c1ccc(F)cc1 [Example 44, 2-[ethyl-(4-fluorophenyl)sulfonyl-amino]-N-[[2-isopropoxy-6-[4-(trifluoromethyl)phenyl]-4-pyridyl]methyl]prop-2-enamide] | 100 | 0.018 |  |  |
| C=C(C(=O)NCc1ccnc(-c2ccc(C(F)(F)F)cc2)c1)N(CC)S(=O)(=O)c1ccc(F)c(F)c1 [Example 35, 2-[(3,4-difluorophenyl)sulfonyl-ethyl-amino]-N-[[2-[4-(trifluoromethyl)phenyl]-4-pyridyl]methyl]prop-2-enamide] | 100 | 0.058 |  |  |
| C=C(C(=O)NCc1cc(-c2ccc(C(F)(F)F)cc2)nc(N2CCCC2)c1)N(C)S(=O)(=O)c1ccc(Cl)cc1 [Example 13, 2-[(4-chlorophenyl)sulfonyl-methyl-amino]-N-[[2-pyrrolidin-1-yl-6-[4-(trifluoromethyl)phenyl]-4-pyridyl]methyl]prop-2-enamide] | 99 | 0.182 |  |  |
| C=C(C(=O)NCc1cc(-c2ccc(OC(F)(F)F)cc2)nc(N2CCN(CC3CC3)CC2)c1)N(CC)S(=O)(=O)c1ccc(F)cc1 [Example 63, N-[[2-[4-(cyclopropylmethyl)piperazin-1-yl]-6-[4-(trifluoromethoxy)phenyl]-4-pyridyl]methyl]-2-[ethyl-(4-fluorophenyl)sulfonyl-amino]prop-2-enamide] | 99 | 0.175 |  |  |
| C/C=C(/C(=O)NCc1ccnc(-c2ccc(OC(F)(F)F)cc2)c1)N(C)S(=O)(=O)c1ccc(F)cc1 [Example 21, (Z)-2-[(4-fluorophenyl)sulfonyl-methyl-amino]-N-[[2-[4-(trifluoromethoxy)phenyl]-4-pyridyl]methyl]but-2-enamide] | 100 | 0.323 |  |  |
| CCN(C1(C(=O)NCc2cc(-c3ccc(C(F)(F)F)cc3)nc(N3CCN(C4CCCCC4)CC3)c2)CC1)S(=O)(=O)c1ccc(F)cc1 [Example 66, N-[[2-(4-cyclohexylpiperazin-1-yl)-6-[4-(trifluoromethyl)phenyl]-4-pyridyl]methyl]-1-[ethyl-(4-fluorophenyl)sulfonyl-amino]cyclopropanecarboxamide] | 93 |  |  | 1.5 |
| C=C(C(=O)NCc1cc(-c2ccc(OC(F)(F)F)cc2)nc(N2CCOCC2)c1)N(CC)S(=O)(=O)c1ccc(Cl)cc1 [Example 17, 2-[(4-chlorophenyl)sulfonyl-ethyl-amino]-N-[[2-morpholino-6-[4-(trifluoromethoxy)phenyl]-4-pyridyl]methyl]prop-2-enamide] | 98 | 0.12 |  |  |
| C=C(C(=O)NCc1ccnc(-c2ccc(OC(F)(F)F)cc2)c1)N(C)S(=O)(=O)c1ccc(F)cc1 [Example 2, 2-[(4-fluorophenyl)sulfonyl-methyl-amino]-N-[[2-[4-(trifluoromethoxy)phenyl]-4-pyridyl]methyl]prop-2-enamide] | 98 | 0.135 |  |  |
| C=C(C(=O)NCc1ccnc(-c2ccc(C(F)(F)F)cc2)c1)N(CC)S(=O)(=O)c1cccc(F)c1 [Example 36] | 100 | 0.118 |  |  |
